This is an account of results in ChEMBL document CHEMBL1909046, “DrugMatrix in vitro pharmacology data”.

Molecules are shown by their SMILES.

For data set [1], the target named is T1, Alpha-1D adrenergic receptor (Homo sapiens, UniProt P25100). Also: in other assays of this panel Not Active means under 50% inhibition at 10 µM.
T1 sequence (P25100 whole entry): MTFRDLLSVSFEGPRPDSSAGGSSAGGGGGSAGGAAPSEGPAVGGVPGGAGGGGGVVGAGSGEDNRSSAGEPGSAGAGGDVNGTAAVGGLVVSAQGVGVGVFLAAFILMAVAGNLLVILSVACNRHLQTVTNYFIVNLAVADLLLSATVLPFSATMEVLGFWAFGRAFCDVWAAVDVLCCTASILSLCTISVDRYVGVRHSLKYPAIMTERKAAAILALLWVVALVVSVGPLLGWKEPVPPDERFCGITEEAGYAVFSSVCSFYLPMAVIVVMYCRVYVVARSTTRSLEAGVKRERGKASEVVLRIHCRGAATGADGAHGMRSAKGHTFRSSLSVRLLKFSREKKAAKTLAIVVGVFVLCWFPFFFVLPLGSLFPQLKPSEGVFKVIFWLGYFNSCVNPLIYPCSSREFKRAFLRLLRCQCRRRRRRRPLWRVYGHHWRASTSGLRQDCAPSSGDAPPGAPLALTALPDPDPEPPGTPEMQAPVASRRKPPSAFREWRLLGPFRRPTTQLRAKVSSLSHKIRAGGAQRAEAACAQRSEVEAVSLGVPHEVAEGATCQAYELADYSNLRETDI
It is filed as cell membranes, HEK293, Membrane.

Data set [2] is described as follows: DRUGMATRIX: Sigma2 radioligand binding (ligand: [3H] Ifenprodil). The settings on record: Not Active = under 50% inhibition at 10 µM. Format: cell membranes, Rattus norvegicus, Wistar, Brain, Membrane.
For the next data set, the target named is T2, Substance-K receptor (Homo sapiens, UniProt P21452). Also: in other assays of this panel Not Active means under 50% inhibition at 10 µM.
T2 sequence (P21452 whole entry): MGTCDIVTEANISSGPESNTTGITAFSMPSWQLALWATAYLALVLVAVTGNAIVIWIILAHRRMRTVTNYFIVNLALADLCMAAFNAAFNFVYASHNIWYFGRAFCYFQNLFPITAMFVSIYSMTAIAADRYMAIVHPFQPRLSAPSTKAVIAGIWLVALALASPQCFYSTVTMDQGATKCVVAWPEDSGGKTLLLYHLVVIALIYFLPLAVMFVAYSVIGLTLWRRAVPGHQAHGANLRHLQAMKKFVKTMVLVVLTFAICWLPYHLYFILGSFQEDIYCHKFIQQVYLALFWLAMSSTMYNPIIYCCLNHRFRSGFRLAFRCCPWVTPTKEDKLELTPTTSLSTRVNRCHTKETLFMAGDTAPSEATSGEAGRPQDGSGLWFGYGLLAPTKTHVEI
Format: cell membranes, CHO, Membrane. The following applies: cho.

The target in a further data set is Cannabinoid receptor 1 (Homo sapiens, UniProt P21554). It is filed as cell membranes, Membrane. The settings on record: chem-1. Also: in other assays of this panel Not Active means under 50% inhibition at 10 µM.
The target in a further data set is Carbonic anhydrase 2 (Homo sapiens, UniProt P00918). Kind of data set: DRUGMATRIX: Carbonic Anhydrase II enzyme inhibition (substrate: 4-Nitrophenyl acetate (4-NPA)). Format: tissue-based, Erythrocyte. The following applies: erythrocyte; Not Active = under 50% inhibition at 10 µM.
A short description of data set [3]: DRUGMATRIX: GABAA, Muscimol, Central radioligand binding (ligand: [3H] Muscimol). Format: cell membranes, Rattus norvegicus, Wistar, Brain, Membrane. The following applies: Not Active = under 50% inhibition at 10 µM.
Another data set concerns the target T3, Leukotriene C4 synthase (Cavia porcellus, UniProt A6XA80).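 Also: enzyme inhibition assay of leukotriene C4 synthase, using LTA4 as the substrate; in other assays of this panel Not Active means under 50% inhibition at 10 µM.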
T3 sequence (A6XA80 whole entry): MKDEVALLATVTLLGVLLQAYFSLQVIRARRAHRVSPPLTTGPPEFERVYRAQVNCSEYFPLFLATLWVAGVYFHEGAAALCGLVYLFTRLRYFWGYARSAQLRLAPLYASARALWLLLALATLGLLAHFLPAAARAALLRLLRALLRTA
Kind of data set: biochemical. Format: tissue-based, Lung.

For data set [4], the target named is Mitogen-activated protein kinase 14 (Homo sapiens, UniProt Q16539). Details: species or system Escherichia coli.
In data set [5] the target is Tyrosine-protein kinase Fyn (Homo sapiens, UniProt P06241). Kind of data set: biochemical. Format: cell-based, Insect cells. The following applies: insect cells.
For another data set, the target named is Acetylcholinesterase (Homo sapiens, UniProt P22303). The data set is described as follows: DRUGMATRIX: Acetylcholinesterase enzyme inhibition (substrate: acetylthiocholine). Format: cell-based, HEK293. The settings on record: hek293; Not Active = under 50% inhibition at 10 µM.
The next data set concerns the target T4, Adenosine receptor A3 (Homo sapiens, UniProt P0DMS8).
T4 sequence (P0DMS8 whole entry): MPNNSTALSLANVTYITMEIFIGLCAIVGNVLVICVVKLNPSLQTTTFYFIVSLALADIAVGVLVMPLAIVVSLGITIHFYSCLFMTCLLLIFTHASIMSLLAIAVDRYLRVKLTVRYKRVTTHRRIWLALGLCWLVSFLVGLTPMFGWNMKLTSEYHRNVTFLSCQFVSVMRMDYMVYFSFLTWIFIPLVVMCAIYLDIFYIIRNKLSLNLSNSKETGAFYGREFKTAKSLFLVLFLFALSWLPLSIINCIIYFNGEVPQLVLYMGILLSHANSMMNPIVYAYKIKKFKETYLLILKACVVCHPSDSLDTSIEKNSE
It is filed as cell membranes, CHO-K1, Membrane. The following applies: cho-k1.

The next data set has as its target T5, Cytochrome P450 2A6 (Homo sapiens, UniProt P11509). Also: in other assays of this panel Not Active means under 50% inhibition at 10 µM.
T5 sequence (P11509 whole entry): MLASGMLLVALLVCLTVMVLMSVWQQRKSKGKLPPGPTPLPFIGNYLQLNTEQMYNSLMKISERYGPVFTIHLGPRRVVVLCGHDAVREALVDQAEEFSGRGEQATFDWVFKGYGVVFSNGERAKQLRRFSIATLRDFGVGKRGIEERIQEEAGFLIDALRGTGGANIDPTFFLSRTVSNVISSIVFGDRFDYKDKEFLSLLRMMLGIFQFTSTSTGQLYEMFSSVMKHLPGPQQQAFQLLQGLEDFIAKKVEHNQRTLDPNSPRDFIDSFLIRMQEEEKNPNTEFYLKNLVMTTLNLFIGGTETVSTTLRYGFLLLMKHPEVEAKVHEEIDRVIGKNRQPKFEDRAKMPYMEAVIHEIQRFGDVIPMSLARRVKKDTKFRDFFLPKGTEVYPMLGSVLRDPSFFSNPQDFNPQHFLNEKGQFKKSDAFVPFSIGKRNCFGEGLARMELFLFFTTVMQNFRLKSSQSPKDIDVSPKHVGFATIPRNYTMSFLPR
The following applies: bti-tn-5b1-4.

Another data set addresses Cytochrome P450 2C9 (Homo sapiens, UniProt P11712). The following applies: bti-tn-5b1-4.

Chain of Acetylcholinesterase (P22303 whole entry): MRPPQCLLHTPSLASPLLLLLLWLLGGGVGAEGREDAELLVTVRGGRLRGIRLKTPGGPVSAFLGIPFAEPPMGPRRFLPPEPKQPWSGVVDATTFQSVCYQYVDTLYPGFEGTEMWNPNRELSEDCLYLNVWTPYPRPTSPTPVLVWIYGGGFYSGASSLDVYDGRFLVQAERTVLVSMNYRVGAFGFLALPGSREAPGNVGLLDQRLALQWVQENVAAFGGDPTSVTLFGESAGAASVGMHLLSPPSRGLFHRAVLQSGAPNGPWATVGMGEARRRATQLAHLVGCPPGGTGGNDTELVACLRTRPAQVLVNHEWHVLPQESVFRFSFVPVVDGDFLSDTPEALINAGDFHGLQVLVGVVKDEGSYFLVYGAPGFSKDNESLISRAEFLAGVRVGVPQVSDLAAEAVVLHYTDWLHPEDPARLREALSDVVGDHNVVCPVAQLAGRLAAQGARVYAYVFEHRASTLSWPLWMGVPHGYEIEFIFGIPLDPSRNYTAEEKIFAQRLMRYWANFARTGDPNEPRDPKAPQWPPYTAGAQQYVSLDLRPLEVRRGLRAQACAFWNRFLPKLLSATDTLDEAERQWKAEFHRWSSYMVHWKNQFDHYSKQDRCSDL
Chain of Mitogen-activated protein kinase 14 (Q16539 whole entry): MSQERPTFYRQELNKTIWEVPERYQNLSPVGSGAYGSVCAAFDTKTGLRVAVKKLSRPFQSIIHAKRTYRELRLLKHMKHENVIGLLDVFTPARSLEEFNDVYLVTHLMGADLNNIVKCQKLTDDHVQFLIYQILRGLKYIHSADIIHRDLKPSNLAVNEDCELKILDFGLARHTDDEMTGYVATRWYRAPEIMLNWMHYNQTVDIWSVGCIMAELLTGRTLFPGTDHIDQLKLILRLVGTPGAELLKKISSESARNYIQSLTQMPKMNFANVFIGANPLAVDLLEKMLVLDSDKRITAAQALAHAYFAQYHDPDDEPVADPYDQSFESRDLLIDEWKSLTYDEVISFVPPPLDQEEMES
Chain of Cytochrome P450 2C9 (P11712 whole entry): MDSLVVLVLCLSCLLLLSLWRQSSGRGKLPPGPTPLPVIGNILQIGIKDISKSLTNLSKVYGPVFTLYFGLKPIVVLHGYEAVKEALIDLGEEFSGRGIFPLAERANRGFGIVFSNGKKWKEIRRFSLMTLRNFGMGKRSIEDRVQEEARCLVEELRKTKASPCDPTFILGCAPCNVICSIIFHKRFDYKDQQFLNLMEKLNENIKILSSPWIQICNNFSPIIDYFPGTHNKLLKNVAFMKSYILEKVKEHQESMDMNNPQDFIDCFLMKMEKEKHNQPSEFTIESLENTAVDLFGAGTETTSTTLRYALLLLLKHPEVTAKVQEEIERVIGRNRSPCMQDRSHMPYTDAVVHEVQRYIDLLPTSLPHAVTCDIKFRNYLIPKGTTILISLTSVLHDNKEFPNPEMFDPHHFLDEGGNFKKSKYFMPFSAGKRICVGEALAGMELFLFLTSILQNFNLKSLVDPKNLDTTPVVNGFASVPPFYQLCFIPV
Chain of Tyrosine-protein kinase Fyn (P06241 whole entry): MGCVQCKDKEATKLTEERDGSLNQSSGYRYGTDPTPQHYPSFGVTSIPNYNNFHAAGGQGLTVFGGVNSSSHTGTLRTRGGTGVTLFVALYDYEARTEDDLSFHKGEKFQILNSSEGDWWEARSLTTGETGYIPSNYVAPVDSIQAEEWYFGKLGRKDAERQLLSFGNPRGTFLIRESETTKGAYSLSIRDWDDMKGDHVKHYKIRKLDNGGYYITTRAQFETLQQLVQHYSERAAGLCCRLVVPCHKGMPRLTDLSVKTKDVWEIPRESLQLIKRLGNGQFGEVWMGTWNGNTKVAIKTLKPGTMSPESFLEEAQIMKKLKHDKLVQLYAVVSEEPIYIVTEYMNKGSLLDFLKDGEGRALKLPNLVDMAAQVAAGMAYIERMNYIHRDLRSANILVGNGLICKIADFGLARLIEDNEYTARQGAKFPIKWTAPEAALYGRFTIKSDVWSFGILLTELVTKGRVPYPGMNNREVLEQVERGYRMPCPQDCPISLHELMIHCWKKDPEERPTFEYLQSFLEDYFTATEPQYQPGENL
Chain of Cannabinoid receptor 1 (P21554 whole entry): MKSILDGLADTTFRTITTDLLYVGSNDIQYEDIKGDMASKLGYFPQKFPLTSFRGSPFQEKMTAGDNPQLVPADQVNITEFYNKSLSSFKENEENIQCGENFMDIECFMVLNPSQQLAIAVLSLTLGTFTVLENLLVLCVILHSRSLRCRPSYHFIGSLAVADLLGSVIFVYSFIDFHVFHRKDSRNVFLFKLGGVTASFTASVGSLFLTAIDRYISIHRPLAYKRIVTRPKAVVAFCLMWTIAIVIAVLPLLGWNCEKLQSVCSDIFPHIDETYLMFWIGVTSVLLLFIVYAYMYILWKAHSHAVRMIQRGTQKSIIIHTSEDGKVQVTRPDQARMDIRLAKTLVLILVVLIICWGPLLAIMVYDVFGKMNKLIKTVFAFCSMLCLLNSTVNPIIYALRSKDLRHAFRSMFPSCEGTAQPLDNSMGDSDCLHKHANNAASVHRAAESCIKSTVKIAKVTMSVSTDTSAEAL

Usually IC50 stands for the concentration that gives 50% inhibition. Broadly, the Ki is a measure of affinity in units of concentration, obtained from inhibition or displacement. For the compound `C[C@]12CCC(=O)C=C1CC[C@@H]1[C@@H]2C(=O)C[C@@]2(C)[C@H]1CC[C@]2(O)C(=O)CO` [CORTISONE], the IC50 entry (in data set [1] (hek293); in data set [2]; on Substance-K receptor; against Cannabinoid receptor 1; on Carbonic anhydrase 2; in [3]) was “Not Active” throughout. In addition, the IC50 entry (on Leukotriene C4 synthase; in [4]; in [5]; against Acetylcholinesterase; against Adenosine receptor A3; at Cytochrome P450 2A6) was “Not Active” each time. In addition, at Cytochrome P450 2C9, the IC50 result is on record as “Not Active”. The Ki entry (in data set [2]; in data set [3]; on Cytochrome P450 2A6; on Cytochrome P450 2C9) was “Not Active” in each case.
As to `Cc1ccccc1N1CCN(CCc2nnc3n2CCCC3)CC1` [DAPIPRAZOLE], the IC50 in [1] (read-out: IC50) was 8.31 nM; in [2], “Not Active”; on Substance-K receptor, “Not Active”; at Cannabinoid receptor 1, “Not Active”; against Carbonic anhydrase 2, “Not Active”; in data set [3], “Not Active”. Besides, the IC50 result (against Leukotriene C4 synthase; in data set [4]; in [5]; against Acetylcholinesterase; against Adenosine receptor A3; against Cytochrome P450 2A6) was “Not Active” throughout. Also, the IC50 entry against Cytochrome P450 2C9 is “Not Active”. Further, the Ki in data set [1] (read-out: Ki) is 4.09 nM; in [2], “Not Active”; in [3], “Not Active”; at Cytochrome P450 2A6 it was “Not Active”; on Cytochrome P450 2C9, “Not Active”.
With `CC1=Nc2ccc(Cl)cc2S(=O)(=O)N1` [DIAZOXIDE], the IC50 entry (in data set [1] (hek293); in data set [2]; against Substance-K receptor; on Cannabinoid receptor 1; against Carbonic anhydrase 2; in [3]) was “Not Active” throughout. The IC50 result (on Leukotriene C4 synthase; in data set [4]; in [5]; on Acetylcholinesterase; at Adenosine receptor A3; on Cytochrome P450 2A6) was “Not Active” in each case. The IC50 result on Cytochrome P450 2C9 is recorded as “Not Active”. Besides, the Ki result (in data set [2]; in [3]; on Cytochrome P450 2A6; on Cytochrome P450 2C9) was “Not Active” throughout.
For `CC(=O)OCC(=O)[C@@]1(OC(C)=O)[C@@H](C)C[C@H]2[C@@H]3C[C@H](F)C4=CC(=O)C=C[C@]4(C)[C@@]3(F)[C@@H](O)C[C@@]21C` [DIFLORASONE DIACETATE], the IC50 result (in data set [1] (hek293); in data set [2]; against Substance-K receptor; on Cannabinoid receptor 1; at Carbonic anhydrase 2; in data set [3]) was “Not Active” throughout. In addition, the IC50 entry (on Leukotriene C4 synthase; in [4]; in data set [5]; on Acetylcholinesterase; on Adenosine receptor A3; on Cytochrome P450 2A6) was “Not Active” throughout. Also, the IC50 result against Cytochrome P450 2C9 is “Not Active”. The Ki result (in data set [2]; in data set [3]; at Cytochrome P450 2A6; on Cytochrome P450 2C9) was “Not Active” throughout.
Consider `COc1ccc([C@@H]2Sc3ccccc3N(CCN(C)C)C(=O)[C@@H]2OC(C)=O)cc1` [DILTIAZEM], for which the IC50 result (in data set [1] (hek293); in data set [2]; against Substance-K receptor; against Cannabinoid receptor 1; against Carbonic anhydrase 2; in data set [3]) was “Not Active” throughout. Moreover, the IC50 entry (against Leukotriene C4 synthase; in data set [4]; in data set [5]; at Acetylcholinesterase; against Adenosine receptor A3; at Cytochrome P450 2A6) was “Not Active” in each case. For the same compound, the IC50 result at Cytochrome P450 2C9 is “Not Active”. In addition, the Ki result (in data set [2]; in data set [3]; on Cytochrome P450 2A6; on Cytochrome P450 2C9) was “Not Active” in each case.
Consider `CCc1ccc(C(=O)C(C)CN2CCCCC2)cc1` (stereo not drawn) [EPERISONE], for which the IC50 result was “Not Active” in data set [1] (hek293); 1060 nM in data set [2] (read-out: IC50); “Not Active” on Substance-K receptor; “Not Active” against Cannabinoid receptor 1; “Not Active” at Carbonic anhydrase 2; “Not Active” in [3]. Moreover, the IC50 result (against Leukotriene C4 synthase; in data set [4]; in data set [5]; against Acetylcholinesterase; against Adenosine receptor A3; against Cytochrome P450 2A6) was “Not Active” throughout. Also, the IC50 entry on Cytochrome P450 2C9 is on record as “Not Active”. For the same compound, the Ki in [2] (read-out: Ki) was 655 nM; in [3] it was “Not Active”; on Cytochrome P450 2A6 it was “Not Active”; at Cytochrome P450 2C9, “Not Active”.
